Legend:
[1] = Dark toxicity against mouse NIH/3T3 cells assessed as cell viability after 48 hrs by MTT assay; type: cell-based, NIH3T3
[2] = Dark toxicity against mouse L1210 cells assessed as cell viability after 48 hrs by MTT assay; type: cell-based
[3] = Phototoxicity against mouse NIH/3T3 cells assessed as cell viability preincubated for 1 hr followed by 1.05 J/cm2 UV-A irradiation measured after 48 hrs by MTT assay; type: cell-based; conditions: NIH3T3, light or radiation study
[4] = tested on: L1210; assay: Phototoxicity against mouse L1210 cells assessed as cell viability preincubated for 1 hr followed by 1.05 J/cm2 UV-A irradiation measured after 48 hrs by MTT assay; type: functional, cell-based; conditions: L1210, light or radiation study

Work on `CCCCNC(=S)Nc1ccc2cc3ccc(NC(=S)NCCCC)cc3nc2c1` yielded an IC50 at 48 h [1] of 32.7 µM, an IC50 at 48 h [2] of 6.6 µM and an IC50 [3] of 2.6 µM. It also gave an IC50 [4] of 0.52 µM.

— ChEMBL document CHEMBL3797140, “Acridin-3,6-dialkyldithiourea hydrochlorides as new photosensitizers for photodynamic therapy of mouse leukemia cells” (Bioorg Med Chem, 2016)
